# According to the supplement of paper PMC10307832:
# What was measured:
# Test in all cases: relative viability (nuclei count vs DMSO), 5 days (fraction); higher = more cells survive
# [1] = test system: NCI-H1651
# How it was run: (§1)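 Relative viability is defined as nuclei in treated wells over nuclei in vehicle wells. Duplicate plates were run and medians reported. Lung cancer cell lines in 1536-well plates were dosed by pin tool one day after seeding, with one drug or with a fixed anchor-drug dose plus five library-drug doses (not always all listed) in √10 steps, and nuclei were counted after 5 days.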
# [2] = test system: NCI-H1355
# How it was run: as §1
# [3] = test system: LOU-NH91
# How it was run: as §1
# [4] = test system: 201T
# How it was run: as §1
# [5] = test system: NCI-H322M
# How it was run: as §1
# [6] = test system: NCI-H1395
# How it was run: as §1
# [7] = test system: HOP-62
# How it was run: as §1
# [8] = test system: NCI-H650
# How it was run: as §1
# [9] = test system: NCI-H1563
# How it was run: as §1
# [10] = test system: BEN
# How it was run: as §1
# [11] = test system: NCI-H1944
# How it was run: as §1
# [12] = test system: NCI-H1793; details: first compound 0.2 µM
# How it was run: as §1
structure (smiles),measurement,setting,value
Cc1csc(=NC2CCCCC2)n1/N=C/c1ccc(O)c(O)c1O [MIM1] + Nc1nc2[nH]cc(CCc3ccc(C(=O)N[C@@H](CCC(=O)O)C(=O)O)cc3)c2c(=O)[nH]1 [Pemetrexed] (partner 0.2 µM),relative viability,[1]; first compound 0.2 µM,0.57
same,relative viability,[1]; first compound 0.6325 µM,0.443
same,relative viability,[1]; first compound 2 µM,0.564
same,relative viability,[1]; first compound 6.325 µM,0.476
same,relative viability,[1]; first compound 20 µM,0.558
same,relative viability,[2]; first compound 0.2 µM,1.05
same,relative viability,[2]; first compound 0.6325 µM,0.932
same,relative viability,[2]; first compound 2 µM,1.07
same,relative viability,[2]; first compound 6.325 µM,0.863
same,relative viability,[2]; first compound 20 µM,0.616
same,relative viability,[3]; first compound 0.2 µM,0.335
same,relative viability,[3]; first compound 0.6325 µM,0.466
same,relative viability,[3]; first compound 2 µM,0.383
same,relative viability,[3]; first compound 6.325 µM,0.403
same,relative viability,[3]; first compound 20 µM,0.285
same,relative viability,[4]; first compound 0.2 µM,0.372
same,relative viability,[4]; first compound 0.6325 µM,0.338
same,relative viability,[4]; first compound 2 µM,0.38
same,relative viability,[4]; first compound 6.325 µM,0.31
same,relative viability,[4]; first compound 20 µM,0.318
same,relative viability,[5]; first compound 0.2 µM,0.614
same,relative viability,[5]; first compound 0.6325 µM,0.58
same,relative viability,[5]; first compound 2 µM,0.558
same,relative viability,[5]; first compound 6.325 µM,0.557
same,relative viability,[5]; first compound 20 µM,0.543
same,relative viability,[6]; first compound 0.2 µM,0.848
same,relative viability,[6]; first compound 0.6325 µM,0.743
same,relative viability,[6]; first compound 2 µM,0.8
same,relative viability,[6]; first compound 6.325 µM,0.697
same,relative viability,[6]; first compound 20 µM,0.341
same,relative viability,[7]; first compound 0.2 µM,0.362
same,relative viability,[7]; first compound 0.6325 µM,0.34
same,relative viability,[7]; first compound 2 µM,0.385
same,relative viability,[7]; first compound 6.325 µM,0.328
same,relative viability,[7]; first compound 20 µM,0.127
same,relative viability,[8]; first compound 0.2 µM,1.07
same,relative viability,[8]; first compound 0.6325 µM,1
same,relative viability,[8]; first compound 2 µM,0.934
same,relative viability,[8]; first compound 6.325 µM,0.89
same,relative viability,[8]; first compound 20 µM,0.282
same,relative viability,[9]; first compound 0.2 µM,0.883
same,relative viability,[9]; first compound 0.6325 µM,0.905
same,relative viability,[9]; first compound 2 µM,0.651
same,relative viability,[9]; first compound 6.325 µM,0.786
same,relative viability,[9]; first compound 20 µM,0.481
same,relative viability,[10]; first compound 0.2 µM,0.792
same,relative viability,[10]; first compound 0.6325 µM,0.751
same,relative viability,[10]; first compound 2 µM,0.705
same,relative viability,[10]; first compound 6.325 µM,0.709
same,relative viability,[10]; first compound 20 µM,0.34
same,relative viability,[11]; first compound 0.2 µM,0.586
same,relative viability,[11]; first compound 0.6325 µM,0.613
same,relative viability,[11]; first compound 2 µM,0.478
same,relative viability,[11]; first compound 6.325 µM,0.381
same,relative viability,[11]; first compound 20 µM,0.233
same,relative viability,[12],0.937
